Laboratory results reported in ChEMBL document CHEMBL1201862, “PubChem BioAssay data set” (2004).
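These data come from cells grown in 96-well plates and exposed to compound for 48 hours at five concentrations. GI50 = concentration required for 50% inhibition of growth.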 Active and inactive are the calls of the source. Cut-off read from the data, not from the text of the source: active = GI50 up to about 1.1 µM and inactive = higher.

Columns and labels:
Test in all cases: NCI-60 cell line screen, 48 h
[1] = tested on: OVCAR-8
[2] = tested on: Malme-3M
[3] = tested on: KM-20L2
[4] = tested on: SK-OV-3
[5] = tested on: SF-268
[6] = tested on: SK-MEL-5
[7] = tested on: KM12
[8] = tested on: RXF 393
[9] = tested on: LOX IMVI
[10] = tested on: COLO 205
[11] = tested on: HT-29
[12] = tested on: SK-MEL-2
[13] = tested on: NCI-H23
[14] = tested on: TK-10
[15] = tested on: SF-295
[16] = tested on: A498
[17] = tested on: HCC 2998
[18] = tested on: SF-539

Measured: GI50

Cc1cccc(/C=N/C23CC4CC(CC(C4)C2)C3)c1
inactive: [1] > 100 µM | [2] > 100 µM | [3] > 100 µM | [4] > 100 µM | [5] > 100 µM | [6] > 100 µM | [7] > 100 µM | [8] > 100 µM | [9] > 100 µM | [10] > 100 µM | [11] > 100 µM | [12] > 100 µM | [13] > 100 µM | [14] > 100 µM | [15] > 100 µM | [16] > 100 µM | [17] > 100 µM | [18] > 100 µM

COC(=O)/C(C)=C/[N+](=O)[O-]
inactive: [1] 22.2 µM | [2] 17.3 µM | [3] 25 µM | [4] 19.2 µM | [5] 23.1 µM | [6] 23 µM | [7] 18.5 µM | [8] 21.2 µM | [9] 18.7 µM | [10] 4.67 µM | [11] 20.6 µM | [12] 19.7 µM | [13] 19.8 µM | [14] 16.3 µM | [15] 16.6 µM | [16] 23.3 µM | [17] 17.3 µM | [18] 18.8 µM

CN1CCOC(c2ccccc2)O1 (centres undefined)
inactive: [1] > 100 µM | [2] > 100 µM | [3] > 100 µM | [4] > 100 µM | [5] > 100 µM | [6] > 100 µM | [7] > 100 µM | [8] > 100 µM | [9] > 100 µM | [10] > 100 µM | [11] > 100 µM | [12] > 100 µM | [13] > 100 µM | [14] > 100 µM | [15] > 100 µM | [16] > 100 µM | [17] > 100 µM | [18] > 100 µM

COc1ccc(C2COc3c(ccc(OC)c3OC)C2=O)cc1OC (centres undefined)
inactive: [1] > 100 µM | [2] > 100 µM | [3] > 100 µM | [4] > 100 µM | [5] > 100 µM | [6] > 100 µM | [7] > 100 µM | [8] > 100 µM | [9] > 100 µM | [10] > 100 µM | [11] > 100 µM | [13] > 100 µM | [14] > 100 µM | [15] > 100 µM | [16] > 100 µM | [17] > 100 µM | [18] > 100 µM

COC[C@@H]1[C@H]2OC(C)(C)O[C@H]2C(=O)N1C(=O)c1ccc(OC)cc1
inactive: [1] > 100 µM | [2] > 100 µM | [3] > 100 µM | [4] > 100 µM | [5] > 100 µM | [6] > 100 µM | [7] > 100 µM | [8] > 100 µM | [9] > 100 µM | [10] > 100 µM | [11] > 100 µM | [12] > 100 µM | [13] > 100 µM | [14] > 100 µM | [15] > 100 µM | [16] > 100 µM | [17] > 100 µM | [18] > 100 µM

O=c1ccc2ccccc2c2ccccc12
inactive: [1] 2.34 µM | [2] 10.4 µM | [3] 1.94 µM | [4] 3.6 µM | [5] 2.79 µM | [6] 2.9 µM | [7] 2.58 µM | [9] 1.91 µM | [10] 4.6 µM | [11] 2.93 µM | [12] 3.43 µM | [13] 2.83 µM | [14] 14.5 µM | [15] 3.61 µM | [16] 22.7 µM | [17] 9.64 µM | [18] 1.97 µM

Cc1cccc(NC(=O)C(=O)Cc2nc3ccccc3nc2O)c1C
inactive: [1] > 100 µM | [2] > 100 µM | [3] > 100 µM | [4] > 100 µM | [5] > 100 µM | [6] > 100 µM | [7] > 100 µM | [8] > 100 µM | [9] > 100 µM | [10] > 100 µM | [11] > 100 µM | [13] > 100 µM | [14] > 100 µM | [15] > 100 µM | [16] > 100 µM | [17] > 100 µM | [18] > 100 µM

CCOC(=O)[C@@]12C(C)=CC(=O)O[C@]1(C)C[C@H]2C#N
inactive: [1] > 100 µM | [2] > 100 µM | [3] > 100 µM | [4] > 100 µM | [5] > 100 µM | [6] > 100 µM | [7] > 100 µM | [8] > 100 µM | [9] > 100 µM | [10] > 100 µM | [11] > 100 µM | [12] > 100 µM | [13] > 100 µM | [14] > 100 µM | [15] > 100 µM | [16] > 100 µM | [17] > 100 µM | [18] > 100 µM

Nc1nc(N)c(-c2ccccc2)c(C(=O)Nc2ccc(Cl)c(Cl)c2)n1
inactive: [1] > 100 µM | [2] > 100 µM | [3] > 100 µM | [5] > 100 µM | [6] > 100 µM | [7] > 100 µM | [8] > 100 µM | [9] > 100 µM | [11] > 100 µM | [12] > 100 µM | [13] > 100 µM | [14] > 100 µM | [15] > 100 µM | [16] > 100 µM | [17] > 100 µM | [18] > 100 µM

O=C(N/N=C/c1cc(Cl)cc(Cl)c1O)c1ccncc1
inactive: [1] 70.6 µM | [2] > 100 µM | [3] 37.3 µM | [4] > 100 µM | [5] > 100 µM | [6] 81.3 µM | [7] > 100 µM | [8] > 100 µM | [9] > 100 µM | [10] > 100 µM | [11] > 10 µM | [13] 78.9 µM | [14] > 100 µM | [15] 60.1 µM | [16] > 100 µM | [17] > 100 µM | [18] 68.5 µM

COc1cc(Br)c(CC2NCCc3cc(OC)c(OC)cc32)cc1OC (centres undefined)
inactive: [1] 86.1 µM | [2] 58.5 µM | [3] 41.2 µM | [4] > 100 µM | [5] > 100 µM | [7] 73.6 µM | [10] 32.7 µM | [11] 34 µM | [12] > 100 µM | [13] 20.9 µM | [14] 83.4 µM | [15] 12 µM | [16] 76 µM | [17] 34.9 µM

O=c1c2ccccc2nc(-c2cccc(Cl)c2)n1NC1OC(CO)C(O)C(O)C1O (centres undefined)
inactive: [1] > 100 µM | [2] > 100 µM | [3] > 100 µM | [4] > 100 µM | [5] > 100 µM | [6] > 100 µM | [7] > 100 µM | [10] > 100 µM | [11] > 100 µM | [12] > 100 µM | [13] > 100 µM | [14] > 100 µM | [15] > 100 µM | [16] > 100 µM | [17] > 100 µM | [18] > 100 µM
